Assay results from the NIST ThermoML archive (doi:10.1021/je060139a).

Key:
[1] = xn = mol fraction of the nth substance listed; settings: Wilhelmy plate method
[2] = refractive index (Na D-line) (dimensionless); xn = mol fraction of the nth substance listed; settings: 100.5 kPa, Liquid, Standard Abbe refractometry

CC(=O)OCc1ccccc1 [benzyl ethanoate] + CCO
Settings | refractive index, 288.15 K | refractive index, 298.18 K | refractive index, 308.15 K | refractive index, 318.15 K | surface tension liquid-gas, 288.15 K [mN/m] | surface tension liquid-gas, 298.18 K [mN/m] | surface tension liquid-gas, 308.15 K [mN/m] | surface tension liquid-gas, 318.15 K [mN/m]
[1], x1 = 0.05 | – | – | – | – | 24 | 23.2 | 22.3 | 21.3
[1], x1 = 0.1 | – | – | – | – | 24.8 | 23.9 | 23 | 22
[1], x1 = 0.15 | – | – | – | – | 25.5 | 24.57 | 23.63 | 22.6
[1], x1 = 0.2 | – | – | – | – | 26.1 | 25.18 | 24.23 | 23.2
[1], x1 = 0.25 | – | – | – | – | 26.7 | 25.77 | 24.83 | 23.8
[1], x1 = 0.3 | – | – | – | – | 27.3 | 26.36 | 25.43 | 24.4
[1], x1 = 0.35 | – | – | – | – | 28 | 27.02 | 26.07 | 25.03
[1], x1 = 0.4 | – | – | – | – | 28.7 | 27.69 | 26.72 | 25.66
[1], x1 = 0.45 | – | – | – | – | 29.4 | 28.37 | 27.38 | 26.3
[1], x1 = 0.5 | – | – | – | – | 30.1 | 29.02 | 28.03 | 26.93
[1], x1 = 0.55 | – | – | – | – | 30.8 | 29.69 | 28.67 | 27.56
[1], x1 = 0.6 | – | – | – | – | 31.5 | 30.36 | 29.3 | 28.17
[1], x1 = 0.65 | – | – | – | – | 32.2 | 31.02 | 29.94 | 28.78
[1], x1 = 0.7 | – | – | – | – | 32.9 | 31.68 | 30.58 | 29.41
[1], x1 = 0.75 | – | – | – | – | 33.62 | 32.37 | 31.24 | 30.06
[1], x1 = 0.8 | – | – | – | – | 34.4 | 33.08 | 31.93 | 30.75
[1], x1 = 0.85 | – | – | – | – | 35.2 | 33.92 | 32.8 | 31.6
[1], x1 = 0.9 | – | – | – | – | 36.1 | 34.8 | 33.7 | 32.45
[1], x1 = 0.95 | – | – | – | – | 36.9 | 35.6 | 34.5 | 33.3
[1], x1 = 1 | – | – | – | – | 37.7 | 36.4 | 35.3 | 34.1
[2], x1 = 0.05 | 1.38022 | 1.37602 | 1.37164 | 1.36738 | – | – | – | –
[2], x1 = 0.1 | 1.39462 | 1.39033 | 1.38588 | 1.38161 | – | – | – | –
[2], x1 = 0.15 | 1.40725 | 1.40288 | 1.39843 | 1.39409 | – | – | – | –
[2], x1 = 0.2 | 1.41836 | 1.41395 | 1.40945 | 1.40506 | – | – | – | –
[2], x1 = 0.25 | 1.42813 | 1.42372 | 1.41929 | 1.41487 | – | – | – | –
[2], x1 = 0.3 | 1.43696 | 1.43255 | 1.4281 | 1.42364 | – | – | – | –
[2], x1 = 0.35 | 1.44489 | 1.44048 | 1.43604 | 1.43155 | – | – | – | –
[2], x1 = 0.4 | 1.45211 | 1.44767 | 1.44323 | 1.4387 | – | – | – | –
[2], x1 = 0.45 | 1.45868 | 1.4542 | 1.44974 | 1.44517 | – | – | – | –
[2], x1 = 0.5 | 1.4647 | 1.46016 | 1.45571 | 1.4511 | – | – | – | –
[2], x1 = 0.55 | 1.4702 | 1.46565 | 1.46119 | 1.45653 | – | – | – | –
[2], x1 = 0.6 | 1.47521 | 1.47065 | 1.46619 | 1.46154 | – | – | – | –
[2], x1 = 0.65 | 1.47987 | 1.47531 | 1.47082 | 1.46613 | – | – | – | –
[2], x1 = 0.7 | 1.48418 | 1.47958 | 1.47508 | 1.47036 | – | – | – | –
[2], x1 = 0.75 | 1.48819 | 1.48358 | 1.47907 | 1.47434 | – | – | – | –
[2], x1 = 0.8 | 1.49191 | 1.48729 | 1.48279 | 1.47804 | – | – | – | –
[2], x1 = 0.85 | 1.49539 | 1.49076 | 1.48626 | 1.48148 | – | – | – | –
[2], x1 = 0.9 | 1.49871 | 1.49408 | 1.48959 | 1.48481 | – | – | – | –
[2], x1 = 0.95 | 1.5017 | 1.49709 | 1.49262 | 1.48783 | – | – | – | –
[2], x1 = 1 | 1.50439 | 1.49982 | 1.49539 | 1.49064 | – | – | – | –
